From US20230077362A1 (CORTEVA AGRISCIENCE LLC, priority 2019, published 2023)

Columns and labels:
[1] = system: Cabbage Looper (Trichoplusia ni) ("CL"), second instar larvae; assay: Bioassay on cabbage looper (CL), 128-well diet tray assay; assay type: in vivo; details: for CL rating: Table ABC, species CL, C = not tested, D = no activity noticed; for pest or weed control at 50 µg/cm2: Trichoplusia ni, read-out: CL rating
Procedure, shortened: (§1)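 Each value represents average percent mortality from eight wells. Larvae were kept in clear-covered trays at 25° C. for five to seven days on a 14-hour light, 10-hour dark schedule before scoring.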

[2] = system: Beet Armyworm (Spodoptera exigua) ("BAW"), second instar larvae; assay: Bioassay on beet armyworm (BAW), 128-well diet tray assay; assay type: in vivo; details: for BAW rating: Table ABC, species BAW, C = not tested, D = no activity noticed; for pest or weed control at 50 µg/cm2: Spodoptera exigua, read-out: BAW rating
Procedure, shortened: as §1

Row | SMILES | CL rating [1] | BAW rating [2] | pest or weed control at 50 µg/cm2 [1] [%] | pest or weed control at 50 µg/cm2 [2] [%]
1 | Cc1ccc(COCC(Cl)(Cl)Cl)c(N2C(=O)CS/C2=N\C(=O)Nc2ccc(-c3ncn(-c4ccc(OC(F)(F)F)cc4)n3)cc2C)c1 [Compound J459] | A (50-100) | A (50-100) | – | –
2 | Cc1cc(COCC(F)(F)F)c(N2C(=O)CS/C2=N\C(=O)Nc2ccc(-c3ncn(-c4ccc(OC(F)(F)F)cc4)n3)cc2C)cc1C [Compound J460] | A (50-100) | A (50-100) | – | –
3 | COC(C)c1ccc(C)cc1N1C(=O)CS/C1=N\C(=O)Nc1ccc(-c2cn(-c3ccc(C(F)(F)F)cn3)cn2)cc1F (centres unmarked) [Compound J461, (Z)-1-(2-Fluoro-4-(1-(5-(trifluoromethyl)pyridin-2-yl)-1H-imidazol-4-yl)phenyl)-3-(3-(2-(1-methoxyethyl)-5-methylphenyl)-4-oxothiazolidin-2-ylidene)urea] | – | – | 50 to 100 | 50 to 100
4 | COC(C)c1ccc(C)cc1N1C(=O)CS/C1=N\C(=O)Nc1ccc(-c2cn(-c3ccc(OC(F)(F)F)cc3)cn2)cc1 (centres unmarked) [Compound J463, (Z)-1-(3-(2-(1-Methoxyethyl)-5-methylphenyl)-4-oxothiazolidin-2-ylidene)-3-(4-(1-(4-(trifluoromethoxy)phenyl)-1H-imidazol-4-yl)phenyl)urea] | – | – | 50 to 100 | 50 to 100
5 | Cc1ccc(OCCCC(F)(F)F)c(N2C(=O)CS/C2=N\C(=O)Nc2ccc(-n3cnc(-c4ccc(OC(F)(F)F)cc4)n3)cc2C)c1 [Compound J465, (Z)-1-(3-(5-Methyl-2-(4,4,4-trifluorobutoxy)phenyl)-4-oxothiazolidin-2-ylidene)-3-(2-methyl-4-(3-(4-(trifluoromethoxy)phenyl)-1H-1,2,4-triazol-1-yl)phenyl)urea] | – | – | 50 to 100 | 50 to 100
6 | Cc1ccc(C(C)C)c(N2C(=O)CS/C2=N\C(=O)Nc2ccc(-n3cnc(-c4ccc(OC(F)(F)F)cc4)n3)cc2C)c1 [Compound J466, (Z)-1-(3-(2-Isopropyl-5-methylphenyl)-4-oxothiazolidin-2-ylidene)-3-(2-methyl-4-(3-(4-(trifluoromethoxy)phenyl)-1H-1,2,4-triazol-1-yl)phenyl)urea] | – | – | 50 to 100 | 50 to 100
7 | COC(C)c1ccc(C)cc1N1C(=O)CS/C1=N\C(=O)Nc1ccc(-n2cnc(-c3ccc(OC(F)(F)F)cc3)n2)cc1C (centres unmarked) [Compound J467, (Z)-1-(3-(2-(1-Methoxyethyl)-5-methylphenyl)-4-oxothiazolidin-2-ylidene)-3-(2-methyl-4-(3-(4-(trifluoromethoxy)phenyl)-1H-1,2,4-triazol-1-yl)phenyl)urea] | – | – | 50 to 100 | 50 to 100
8 | Cc1cc(-n2cnc(-c3ccc(OC(F)(F)F)cc3)n2)ccc1NC(=O)/N=C1\SCC(=O)N1c1cc(N(C)C)ccc1C(F)(F)F [Compound J468, (Z)-1-(3-(5-(Dimethylamino)-2-(trifluoromethyl)phenyl)-4-oxothiazolidin-2-ylidene)-3-(2-methyl-4-(3-(4-(trifluoromethoxy)phenyl)-1H-1,2,4-triazol-1-yl)phenyl)urea] | – | – | 50 to 100 | 50 to 100
9 | Cc1cc(-n2cnc(-c3ccc(OC(F)(F)F)cc3)n2)ccc1NC(=O)/N=C1\SCC(=O)N1c1cc(N(C)C)ccc1C(C)C [Compound J469, (Z)-1-(3-(5-(Dimethylamino)-2-isopropylphenyl)-4-oxothiazolidin-2-ylidene)-3-(2-methyl-4-(3-(4-(trifluoromethoxy)phenyl)-1H-1,2,4-triazol-1-yl)phenyl)urea] | – | – | 50 to 100 | 50 to 100
10 | Cc1ccc(C(C)C)c(N2C(=O)CS/C2=N\C(=O)Nc2ccc(-c3cn(-c4ccc(OC(F)(F)F)cc4)cn3)cc2F)c1 [Compound J473, (Z)-1-(2-Fluoro-4-(1-(4-(trifluoromethoxy)phenyl)-1H-imidazol-4-yl)phenyl)-3-(3-(2-isopropyl-5-methylphenyl)-4-oxothiazolidin-2-ylidene)urea] | – | – | 50 to 100 | 50 to 100
